Experimental data reported in patent publication US11021493B2, “1,4-thiazine dioxide and 1,2,4-thiadiazine dioxide derivatives as beta-secretase inhibitors and methods of use” (AMGEN INC., priority 2016, dated 2021).

Legend:
Cathepsin D (CatD) = Cathepsin D (CatD) (Homo sapiens (Human), UniProt P07339); assay: In vitro enzymatic Cathepsin D (CatD) FRET assay; assay type: biochemical; conditions: read-out: Cat D Enzyme IC50
BACE1 [1] = molecular target: T1, BACE1 (Homo sapiens (Human), UniProt P56817); assay: In vitro enzymatic BACE1 FRET assay; assay type: biochemical; conditions: read-out: BACE1 Enzyme IC50
Target sequence in this assay (P56817 46-501): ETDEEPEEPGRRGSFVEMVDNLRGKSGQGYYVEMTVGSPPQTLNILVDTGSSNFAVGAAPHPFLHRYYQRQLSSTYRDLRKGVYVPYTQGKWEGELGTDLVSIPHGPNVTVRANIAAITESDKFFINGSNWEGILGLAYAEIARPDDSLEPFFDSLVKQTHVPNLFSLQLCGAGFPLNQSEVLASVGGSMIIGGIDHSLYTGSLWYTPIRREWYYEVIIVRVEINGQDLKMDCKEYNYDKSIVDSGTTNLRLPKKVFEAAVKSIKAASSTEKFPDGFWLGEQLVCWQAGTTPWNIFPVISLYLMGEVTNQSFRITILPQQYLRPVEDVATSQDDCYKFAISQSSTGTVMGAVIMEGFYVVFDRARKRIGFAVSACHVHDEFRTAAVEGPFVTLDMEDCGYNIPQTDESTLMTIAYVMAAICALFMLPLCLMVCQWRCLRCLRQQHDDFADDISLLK

BACE1 [2] = molecular target: T1, BACE1; assay: In vitro BACE1 cell-based assay (Aβ40 in conditioned medium of cells stably expressing APP, HTRF); conditions: Aβ40 in conditioned media after 24 h incubation
Target sequence in this assay (P56817 46-501, species assumed): as the sequence (P56817 46-501) above

human recombinant BACE2 = human recombinant BACE2 (Homo sapiens (Human), UniProt Q9Y5Z0); assay: In vitro enzymatic BACE2 FRET assay; assay type: biochemical; conditions: read-out: BACE2 Enzyme IC50
human recombinant BACE2, sequence (Q9Y5Z0 63-518): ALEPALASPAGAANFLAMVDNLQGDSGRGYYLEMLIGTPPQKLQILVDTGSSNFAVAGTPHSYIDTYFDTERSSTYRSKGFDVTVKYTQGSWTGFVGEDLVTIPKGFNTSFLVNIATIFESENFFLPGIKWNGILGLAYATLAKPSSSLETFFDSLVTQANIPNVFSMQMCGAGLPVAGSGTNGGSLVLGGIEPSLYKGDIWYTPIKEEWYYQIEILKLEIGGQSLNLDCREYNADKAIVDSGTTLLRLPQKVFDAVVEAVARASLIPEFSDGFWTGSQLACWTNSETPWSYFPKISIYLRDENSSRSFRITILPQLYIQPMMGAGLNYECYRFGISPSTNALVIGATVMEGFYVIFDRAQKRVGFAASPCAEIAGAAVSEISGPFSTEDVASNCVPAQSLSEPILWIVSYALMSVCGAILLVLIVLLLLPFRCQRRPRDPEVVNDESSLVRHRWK

Cathepsin D (CatD), sequence (P07339 65-412, species assumed): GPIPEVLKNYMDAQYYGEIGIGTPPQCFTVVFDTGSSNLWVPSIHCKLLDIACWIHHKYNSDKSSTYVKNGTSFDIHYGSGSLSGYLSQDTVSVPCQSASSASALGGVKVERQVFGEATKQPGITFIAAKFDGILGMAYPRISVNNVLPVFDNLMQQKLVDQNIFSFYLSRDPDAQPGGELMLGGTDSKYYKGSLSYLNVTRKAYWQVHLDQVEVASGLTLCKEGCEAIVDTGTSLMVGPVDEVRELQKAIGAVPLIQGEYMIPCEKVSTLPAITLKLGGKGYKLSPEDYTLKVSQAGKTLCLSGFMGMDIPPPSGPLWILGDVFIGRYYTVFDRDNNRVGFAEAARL

IC50 (Cathepsin D (CatD)) [µM] | IC50 (BACE1 [1]) [nM] | IC50 (BACE1 [2]) [nM] | IC50 (human recombinant BACE2) [nM] | Structure (SMILES)
> 133 | 5 | 17 | 32 | C[C@]1(c2cc(/C=C(\F)c3ccc(C#N)cn3)ccc2F)N=C(N)C2(CF)CC[C@@H]1S2(=O)=O (stereo in doubt) [Example 102, 6-((Z)-2-(3-((1S,2R,5R)-4-amino-5-(fluoromethyl)-2-methyl-8,8-dioxido-8-thia-3-azabicyclo[3.2.1]oct-3-en-2-yl)-4-fluorophenyl)-1-fluorovinyl)nicotinonitrile]
119 | 2 | 4 | 3 | CN1C(N)=N[C@](C)(c2cc(/C=C(\F)c3ncc(C#N)cc3Cl)ccc2F)CS1(=O)=O [Example 269, (R,Z)-6-(2-(3-(3-amino-2,5-dimethyl-1,1-dioxido-5,6-dihydro-2H-1,2,4-thiadiazin-5-yl)-4-fluorophenyl)-1-fluorovinyl)-5-chloronicotinonitrile]
116 | 272 | 1120 | 41 | CN1C(N)=N[C@](C)(c2cc(/C=C(\F)c3cc4ccccc4cn3)ccc2F)CS1(=O)=O [Example 259, (5R)-5-(2-fluoro-5-((Z)-2-fluoro-2-(3-isoquinolinyl)ethenyl)phenyl)-2,5-dimethyl-5,6-dihydro-2H-1,2,4-thiadiazin-3-amine 1,1-dioxide]
428 | 131 | 339 | 151 | C[C@]1(c2cc(/C=C(\F)c3cnc(OCCF)cn3)ccc2F)N=C(N)[C@@]2(CF)CC[C@@H]1S2(=O)=O [Example 133, (1R,4R,5S)-2-amino-4-(2-fluoro-5-((Z)-2-fluoro-2-(5-(2-fluoroethoxy)pyrazin-2-yl)vinyl)phenyl)-1-(fluoromethyl)-4-methyl-8-thia-3-azabicyclo[3.2.1]oct-2-ene 8,8-dioxide]
428 | 49 | 198 | 70 | CN1C(N)=N[C@](C)(c2cc(/C=C(\F)c3cnc(Cl)cn3)ccc2F)C2(CC2)S1(=O)=O [Example 139, (8R)-8-(5-((Z)-2-(5-chloro-2-pyrazinyl)-2-fluoroethenyl)-2-fluorophenyl)-5,8-dimethyl-4-thia-5,7-diazaspiro[2.5]oct-6-en-6-amine 4,4-dioxide]
90.5 | 96 | 1320 | 671 | CC1(C)C(N)=N[C@](C)(c2cc(/C=C(\F)c3cnc(OCCn4cc(Br)cn4)cn3)ccc2F)CS1(=O)=O [Example 156, (R,Z)-5-amino-3-(5-(2-(5-(2-(4-bromo-1H-pyrazol-1-yl)ethoxy)pyrazin-2-yl)-2-fluorovinyl)-2-fluorophenyl)-3,6,6-trimethyl-3,6-dihydro-2H-1,4-thiazine 1,1-dioxide]
69.8 | 750 | 653 | 78 | CN1C(N)=N[C@](C)(c2cc(/C=C(\F)c3cnc(C4CC4)cn3)ccc2F)CS1(=O)=O [Example 266, (R,Z)-3-amino-5-(5-(2-(5-cyclopropylpyrazin-2-yl)-2-fluorovinyl)-2-fluorophenyl)-2,5-dimethyl-5,6-dihydro-2H-1,2,4-thiadiazine 1,1-dioxide]
25.3 | 18 | 88 | 217 | CN1C(N)=N[C@](C)(c2cc(/C=C(\F)c3cnc(OCC(F)(F)C(F)F)cn3)ccc2F)CS1(=O)=O [Example 148, (R,Z)-3-amino-5-(2-fluoro-5-(2-fluoro-2-(5-(2,2,3,3-tetrafluoropropoxy)pyrazin-2-yl)vinyl)phenyl)-2,5-dimethyl-5,6-dihydro-2H-1,2,4-thiadiazine 1,1-dioxide]
62.2 | 128 | 5090 | 52 | CC1(C)C(N)=N[C@](C)(c2cc(/C=C(\F)c3cnc(Cl)cn3)ccc2F)C(F)(F)S1(=O)=O [Example 191, (R,Z)-5-amino-3-(5-(2-(5-chloropyrazin-2-yl)-2-fluorovinyl)-2-fluorophenyl)-2,2-difluoro-3,6,6-trimethyl-3,6-dihydro-2H-1,4-thiazine 1,1-dioxide]
51.2 | 4 | 2 | 102 | CC#C[C@H](CC)Oc1cnc(/C(F)=C/c2ccc(F)c([C@]3(C)CS(=O)(=O)C(C)(C)C(N)=N3)c2)cn1 (single isomer, unassigned) [Example 199]
94.7 | 3 | 39 | 50 | C[C@@]1(c2cc(/C=C(\F)c3ccc(C#N)cn3)ccc2F)CS(=O)(=O)C2(CCC2)C(N)=N1 [Example 103, (R,Z)-6-(2-(3-(9-amino-7-methyl-5,5-dioxido-5-thia-8-azaspiro[3.5]non-8-en-7-yl)-4-fluorophenyl)-1-fluorovinyl)nicotinonitrile]
102 | 22 | 27 | 192 | Cc1noc(COc2cnc(/C(F)=C/c3ccc(F)c([C@@]4(C)N=C(N)[C@@]5(CF)CC[C@@H]4S5(=O)=O)c3)cn2)n1 [Example 115, (1R,4R,5S)-2-amino-4-(2-fluoro-5-((Z)-2-fluoro-2-(5-((3-methyl-1,2,4-oxadiazazol-5-yl)methoxy)pyrazin-2-yl)vinyl)phenyl)-1-(fluoromethyl)-4-methyl-8-thia-3-azabicyclo[3.2.1]oct-2-ene 8,8-dioxide]
43 | 176 | 120 | 217 | CN1C(N)=N[C@](C)(c2cc(/C=C(\F)c3cnc(OCC4COC4)cn3)ccc2F)CS1(=O)=O [Example 179, (R,Z)-3-amino-5-(2-fluoro-5-(2-fluoro-2-(5-(oxetan-3-ylmethoxy)pyrazin-2-yl)vinyl)phenyl)-2,5-dimethyl-5,6-dihydro-2H-1,2,4-thiadiazine 1,1-dioxide]
99.9 | 5 | 26 | 10 | CN1C(N)=N[C@](C)(c2cc(/C=C(\F)c3ncc(C(F)(F)F)cc3Cl)ccc2F)CS1(=O)=O [Example 242, (5R)-5-(5-((Z)-2-(3-chloro-5-(trifluoromethyl)-2-pyridinyl)-2-fluoroethenyl)-2-fluorophenyl)-2,5-dimethyl-5,6-dihydro-2H-1,2,4-thiadiazin-3-amine 1,1-dioxide]
122 | 6 | 51 | 28 | Cc1cc(C#N)cnc1/C(F)=C/c1ccc(F)c([C@]2(C)CS(=O)(=O)C(C)(C)C(N)=N2)c1 [Example 274, (R,Z)-6-(2-(3-(5-amino-3,6,6-trimethyl-1,1-dioxido-3,6-dihydro-2H-1,4-thiazin-3-yl)-4-fluorophenyl)-1-fluorovinyl)-5-methylnicotinonitrile]
122 | 3840 | 3020 | 458 | CN1C(N)=N[C@](C)(c2cc(/C=C(\F)c3ccc4c(n3)OCCO4)ccc2F)CS1(=O)=O [Example 255, (5R)-5-(5-((Z)-2-(2,3-dihydro[1,4]dioxino[2,3-b]pyridin-6-yl)-2-fluoroethenyl)-2-fluorophenyl)-2,5-dimethyl-5,6-dihydro-2H-1,2,4-thiadiazin-3-amine 1,1-dioxide]
28.3 | 7 | 21 | 52 | CN1C(N)=N[C@](C)(c2cc(/C=C(\F)c3cnc(OCC#CCF)cn3)ccc2F)CS1(=O)=O [Example 254, (R,Z)-3-amino-5-(2-fluoro-5-(2-fluoro-2-(5-((4-fluorobut-2-yn-1-yl)oxy)pyrazin-2-yl)vinyl)phenyl)-2,5-dimethyl-5,6-dihydro-2H-1,2,4-thiadiazine 1,1-dioxide]
15.7 | 65 | 168 | 732 | Cc1cc(COc2cnc(/C(F)=C/c3ccc(F)c([C@@]4(C)N=C(N)N(C)S(=O)(=O)C45CC5)c3)cn2)no1 [Example 162, (8R)-8-(2-fluoro-5-((Z)-2-fluoro-2-(5-((5-methyl-3-isoxazolyl)methoxy)-2-pyrazinyl)ethenyl)phenyl)-5,8-dimethyl-4-thia-5,7-diazaspiro[2.5]oct-6-en-6-amine 4,4-dioxide]
48.8 | 15 | 47 | 6 | CN1C(N)=N[C@](C)(c2cc(/C=C(\F)c3ccc(Cl)cn3)cc(F)c2F)CS1(=O)=O [Example 152, (R,Z)-3-amino-5-(5-(2-(5-chloropyridin-2-yl)-2-fluorovinyl)-2,3-difluorophenyl)-2,5-dimethyl-5,6-dihydro-2H-1,2,4-thiadiazine 1,1-dioxide]
160 | 268 | 128 | 533 | C[C@@H]1COc2nc(/C(F)=C/c3ccc(F)c([C@]4(C)CS(=O)(=O)N(C)C(N)=N4)c3)ncc2O1 [Example 235, (R)-3-amino-5-(2-fluoro-5-((Z)-2-fluoro-2-((R)-6-methyl-6,7-dihydro-[1,4]dioxino[2,3-d]pyrimidin-2-yl)vinyl)phenyl)-2,5-dimethyl-5,6-dihydro-2H-1,2,4-thiadiazine 1,1-dioxide]
208 | 136 | 142 | 377 | C[C@H](O)COc1cnc(/C(F)=C/c2ccc(F)c([C@]3(C)CS(=O)(=O)C(C)(C)C(N)=N3)c2)cn1 [Example 219, (R)-5-amino-3-(2-fluoro-5-((Z)-2-fluoro-2-(5-((S)-2-hydroxypropoxy)pyrazin-2-yl)vinyl)phenyl)-3,6,6-trimethyl-3,6-dihydro-2H-1,4-thiazine 1,1-dioxide]

Structure (SMILES) | IC50 (Cathepsin D (CatD)) [µM] | IC50 (BACE1 [1]) [nM] | IC50 (BACE1 [2]) [nM] | IC50 (human recombinant BACE2) [nM]
CC1(C)C(N)=N[C@](C)(c2cc(/C=C(\F)c3cnc(C#N)cn3)ccc2F)CS1(=O)=O [Example 170, (R,Z)-5-(2-(3-(5-amino-3,6,6-trimethyl-1,1-dioxido-3,6-dihydro-2H-1,4-thiazin-3-yl)-4-fluorophenyl)-1-fluorovinyl)pyrazine-2-carbonitrile] | 645 | 2 | 5 | 17
